Measured values: patent publication US20210156844A1, “TMEM16A Modulation for Diagnostic or Therapeutic Use in Pulmonary Hypertension (PH)” (Bayer Aktiengesellschaft, priority 2017, published 2021)

What was measured:
PASMC = experiment: Membrane potential (Em) measurement, current clamp, primary PASMC; format: cell-based, human; settings: BBR 30 μM, T16Ainh-A01 10 μM
Method: PASMC were grown on glass coverslips and serum starved for 24-48 hours. The coverslips were perfused with a bath solution composed of (in mM) NaCl 141, KCl 4.7, HEPES 10, glucose 10, CaCl2 1.8, MgCl2 1.2, pH 7.4 (NaOH) at room temperature. Micropipettes were pulled of borosilicate glass capillaries (GC150F-10, Harvard Apparatus Ltd, Edenbridge, Kent, UK) with a P-2000 electrode puller (Sutter Instruments, Novato Ca, USA), and fire polished using a micro-forge (MF-830, Narishige, Tokyo, Japan) to give a final resistance of 3-5 MΩ when filled with the pipette solution (composition in mM: NaCl 10, KCl 125, K2ATP 5, HEPES 10, EGTA 5, MgCl2 4, pH set to 7.2 with KOH). Em was measured with a HEKA EPC10 patch clamp amplifier (Dr. Schulze GmbH, Lambrecht, Germany) in the current clamp mode as described by others (Mason, M J, et al., Biophys. J. (2005) 88, 739-750; Perkins, KL, J. Neurosci. Methods (2006) 154, 1-18).
The liquid junction potential was calculated with the Clampex 10.0 software (Molecular Devices, Sunnyvale Calif., USA) and an online correction was made for each recording. Both at baseline and during perfusion with 30 μM benzbromarone (BBR, Sigma, St Louis Mo., USA) or 10 μM T16Ainh-A01 (Tocris, Bristol, UK), only those recordings in which (1) the Em was constant for at least 3 minutes, and (2) the seal resistance was constantly high (>5 GΩ) were used for the analyses.
The HEK-293 cells were transfected overnight either with the CLCA1 gene containing or with the empty plasmid, using the Effectene transfection reagent kit (Qiagen) and DMEM F-12 complete medium. On the next day, the medium was changed to serum-free SMC Medium. The resulting conditioned media were collected 24 hours later and applied on the PASMC of healthy donors. After 24 hours of incubation, the Em of the PASMC was measured as described above. To confirm the presence of CLCA1 in the conditioned medium, 20 μL of conditioned medium as well as control medium (collected from cells transfected with the empty plasmide) were analyzed with western blot as described above, using a CLCA1 antibody (ab108851, Abcam).

[1] = test system: monocrotaline treated rats; experiment: Monocrotaline treated rats, chronic treatment with slow-release pellets; format: in vivo, rat
Method: Male Sprague-Dawley rats (body weight: approx. 250 g, Charles River) received a single subcutaneous injection of monocrotaline (MCT, 60 mg/kg, n=16) or vehicle (control group, n=8). Since significant RVSP increase and PA muscularization had been detected as early as 12 days after the injection of MCT58, two weeks after monocrotaline treatment rats were randomly ordered into two groups. Subcutaneous slow-release pellets (Innovative Research of America) that contained either benzbromarone (MCT+BBR, n=8) or vehicle (MCT+Veh, n=8) were implanted. Four weeks after monocrotaline treatment all rats were subjected to echocardiography and in vivo hemodynamic measurements, thereafter they were sacrificed for organ collection.
Echocardiographic measurements were performed using a Vevo 770 High Resolution Imaging System with a 30 MHz RMV-707B scan head (VisualSonics, Toronto, Canada) as previously reported (Egemnazarov, B, et al., J. Am. Soc. Echocardiogr. (2015) 28, 828-843). Briefly, animals were mounted on a heated pad and kept under anaesthesia with isoflurane 0.8-1.2%. Chest hair was depilated and a layer of sonographic coupling gel was applied to the thorax. RV internal diameter (RVID) and free wall thickness (RVFW) from the left parasternal long axis view were measured in M-mode and 2-D modalities. RV outflow tract was visualized from the parasternal short axis view at the level of the aortic valve. From this view, pulse wave (PW) Doppler flow recordings of the pulmonary artery were obtained with the sample volume positioned at the tip of the pulmonary valve leaflets. Here, peak velocity, acceleration time (PAAT), and velocity-time integral (VTI) were measured. For every parameter, measurements were done for 4-5 cardiac cycles and results were averaged. Cardiac output was calculated as CO (mL/min)=(7.85×[RV outflow tract]2×pulmonary valve velocity-time integral×heart rate)/1,000. Cardiac index (CI) was obtained by normalizing cardiac output to body weight.
In rats, in vivo hemodynamic measurements were conducted as described above for the mice, with the exception that for the right ventricular and the systolic blood pressures, 2 F Millar Catheters (SPR-513 and SPR-320, respectively) were used.
At the end of the hemodynamic measurements, animals were exsanguinated and the heart and lungs were isolated. The right ventricle (RV) was dissected from the left ventricle+septum (LV+S) and both of them were weighed. Right ventricular hypertrophy was assessed by calculating the Fulton index, defined as RV weight/(LV+S weight).
Paraffin-embedded mouse and rat lung tissues were cut to 2 μm thin sections. Double immunohistochemical staining and quantification of the non-muscularized and muscularized arteries were made as previously described (Crnkovic, S, et al., Respir. Physiol. Neurobiol. (2011) 179, 342-345). Immunostained slides were scanned with an Olympus BX61VS microscope using the OlyVIA software (Olympus Austria GmbH, Vienna, Austria). Vessel remodeling in lung sections was quantified using semi-automated image analysis software (Visiopharm, Hoersholm, Denmark). Throughout the analysis, all samples were identified with number codes to blind the operator for the experimental group. The percentage of non-muscularized and muscularized pulmonary arteries, relative to the total number of pulmonary arteries, was calculated.
Serial sections from the same lungs were used to determine cell proliferation in the PA wall, as described by Zabini et al. (Zabini, D. et al., J. Cell. Mol. Med. (2015) 19, 1151-1161). Lung sections were labeled using a primary antibody against the proliferation marker PCNA (sc-7907, Santa Cruz). Immunostained slides were scanned with an Olympus BX61VS microscope equipped with the OlyVIA software (Olympus Austria GmbH, Vienna, Austria). Negative controls were performed with the omission of the primary antibody.

[2] = compared to the MCT+Veh group, week 4
[3] = slow-release pellet from two weeks after MCT, echocardiography at week 4

## CCc1oc2ccccc2c1C(=O)c1cc(Br)c(O)c(Br)c1 [benzbromarone, (2-Ethyl-3-benzofuranyl)-(3,5-dibrom-4-hydroxyphenyl)ketone]
PASMC; PASMC of IPAH patients
  reversal of the Em of IPAH-PASMC to the levels of PASMC isolated from healthy donors: completely
PASMC; PASMC of healthy donors
  effect on Em of PASMC of donors: no effect
[1]; MCT treated rats, lung sections (not shown)
  PCNA positive nuclei in the medial layer of the PA: reduced number
[1]; MCT+BBR vs MCT+Veh
  number of fully muscularized arteries: markedly reduced
  number of non-muscularized arteries: increased
[1]; [2]
  RV hypertrophy (Fulton-index): significantly decreased
  RVSP: significantly decreased
[1]; [3]
  MCT-induced decrease in cardiac index (CI): completely reversed
  MCT-induced decrease in pulmonary artery acceleration time (PAAT): completely reversed
  MCT-induced increase in right ventricular free wall thickness (RVFW Thickness): completely reversed
